Laboratory results taken from patent publication US20210353648A1, “GRAPIPRANT UNIT DOSAGE FORMS” (Arrys Therapeutics, Inc., priority 2018, published 2021).

Tests used:
[1] = Phase 1 multiple ascending dose study of grapiprant tablets: serum pharmacokinetics; format: in vivo, human; conditions: for Rac (Day 14/Day 1) / half-life / Cmax / AUC(0-t): mean; for increase of mean systemic exposure (AUC and Cmax) with dose: 14 days; for half-life / Cmax / AUC(0-t) / Tmax: human, oral, serum; for Tmax: median
Excerpt: Serum pharmacokinetic parameters can be computed using WinNonlin Version 3.2 (Pharsight®, Mountain View, Calif.) using standard non-compartmental methods. As used herein, the term “Cmax” refers to the maximum observed serum concentration of grapiprant estimated directly from concentration versus time data. As used herein, the term “Tmax” refers to the time of the first occurrence of Cmax. As used herein, the term “AUC(0-tlast)” refers to the area under the serum concentration vs. time curve from time 0 to Tlast (the time of the last quantifiable concentration estimated using the linear/log trapezoidal approximation). When data permitted, the terminal elimination rate constant (kel) was estimated using linear least-square regression analysis of the serum concentration-time data obtained during the terminal log-linear phase. As used herein, the term “AUC(0-inf)” refers to AUC(0-tlast) extrapolated to infinity, which is calculated as the sum of AUC(0-tlast) and Cest/kel, wherein Cest is the predicted plasma concentration obtained from the log linear regression analysis at the last quantifiable time point. As used herein, the term “t½” refers to terminal phase half-life calculated as ln(2)/kel. As used herein, the term “AUC(last-inf)” refers to the area under the serum concentration versus time curve from Tlast to infinity, which is estimated as Cpest/kel, wherein Cpest represented the estimated concentration at time Tlast based on the aforementioned regression analysis. As used herein, the term “AUCτ” refers to the area under the serum concentration versus time curve over the dosing interval. As used herein, the term “Rac” refers to the accumulation ratio of grapiprant in the serum, which is calculated as a measure of drug accumulation at steady state compared to Day 1. Rac for the 14 day oral administration described herein is calculated using the equation: Rac=(Day 14 AUCτ/Day 1 AUCτ). Rac for the 17 day oral administration described herein is calculated using the equation: Rac=(Day 17 AUCτ/Day 1 AUCτ). Day 17 is used as steady state in the elderly group of subjects, which is Day 14 of the multiple dosing period for these subjects.
As used herein, the terms “cohort 1”, “cohort 2”, and “cohort 3” refer to studies where grapiprant tablets are administered at dosage levels of 50 mg, 150 mg, and 300 mg, respectively, in healthy adult subjects with a 14 day oral administration regimen as follows: one dose in the morning in a fasting state on day 1; twice daily (BID, approximately every 12 hours) on days 2 through 13: one dose in a fasting state in the morning, and one dose in the evening on an empty stomach; and one dose in the morning in a fasting state on day 14.
As used herein, the term “cohort 5” and/or “cohort 6” refers to a study where grapiprant tablets are administered at a dosage level of 250 mg in elderly subjects with minor renal impairment with a 17 day oral administration regimen as follows: one dose in the morning in a fasting state on day 1; twice daily (BID, approximately every 12 hours) on days 4 through 16: one dose in a fasting state in the morning, and one dose in the evening on an empty stomach; and one dose in the morning in a fasting state on day 17.
Dosing and Duration: In Cohorts 1-3, study medication was administered once daily in the morning on Days 1 and 14, and twice daily (BID, approximately every 12 hours) on Days 2 through 13. In Cohorts 5 and 6, study medication was administered once daily in the morning on Day 1, BID on Days […] through 16, and once in the morning on Day 17. In all cohorts dosing was to be in the fasting state for the morning dose and on an “empty stomach” for the evening dose.
Pharmacokinetic Evaluations: Serial blood samples for serum PK evaluations of grapiprant began prior to dosing on Day 1 and continued until 48 hours following Day 14 dosing (Cohorts 1-3) or until 24 hours following Day 17 dosing (Cohorts 5 and 6). […]

[2] = Phase 1 multiple ascending dose study of grapiprant tablets: safety and tolerability
Excerpt: Study Design: This was a randomized, investigator-blind, subject-blind, sponsor-open, placebo controlled, sequential parallel-group, multiple ascending dose study of grapiprant tablets.
Safety Evaluations: Safety evaluations included clinical monitoring, adverse events (AEs), clinical laboratory tests including renal function tests, bone markers (serum bone-specific alkaline phosphatase and osteocalcin and urinary N-terminal telopeptide of type I collagen), vital signs (heart rate and blood pressure), and 12-lead ECGs.
Safety Analyses: Safety data are presented in tabular and/or graphical format and summarized descriptively.
Bone markers were analyzed as percentage change from baseline and the influence of potential outliers was assessed.

[3] = 250 mg BID, elderly subjects with mild renal impairment
[4] = 50 mg, 50 mg BID tablets, Day 1, healthy adults
[5] = 50 mg, 50 mg BID tablets, Day 14, healthy adults
[6] = 150 mg, 150 mg BID tablets, Day 1, healthy adults
[7] = 150 mg, 150 mg BID tablets, Day 14, healthy adults
[8] = 250 mg, 250 mg BID tablets, Day 1, elderly with mild renal impairment
[9] = 250 mg, 250 mg BID tablets, Day 17, elderly with mild renal impairment
[10] = 300 mg, 300 mg BID tablets, Day 1, healthy adults
[11] = 300 mg, 300 mg BID tablets, Day 14, healthy adults

CCc1nc2c(C)nc(C)cc2n1-c1ccc(CCNC(=O)NS(=O)(=O)c2ccc(C)cc2)cc1 [Grapiprant, N-((4-(2-ethyl-4,6-dimethyl-1H-imidazo[4,5-c]pyridin-1-yl)phenethyl)carbamoyl)-4-methylbenzenesulfonamide]
Rac (Day 14/Day 1) ([1]; 50 mg BID tablets, Day 14 AUCT/Day 1 AUCT, healthy adults): 1.13
Rac (Day 14/Day 1) ([1]; 150 mg BID tablets, Day 14 AUCT/Day 1 AUCT, healthy adults): 1.20
Rac (Day 14/Day 1) ([1]; 250 mg BID tablets, Day 17 AUCT/Day 1 AUCT, elderly with mild renal impairment): 1.54
mean exposure compared with the 300 mg BID healthy adult group [1, 3]: slightly greater
Rac (Day 14/Day 1) ([1]; 300 mg BID tablets, Day 14 AUCT/Day 1 AUCT, healthy adults): 1.33
increase of mean systemic exposure (AUC and Cmax) with dose ([1]; between 50 and 150 mg BID, tablets, healthy adults): approximately dose proportional
increase of mean exposures ([1]; dose increased 2-fold from 150 mg BID to 300 mg BID, healthy adults): approximately 3 fold
increase of mean systemic exposure (AUC and Cmax) with dose ([1]; dose increased from 150 mg BID to 300 mg BID, healthy adults): greater than dose proportional increase
half-life ([1]; 50 mg BID tablets, Day 14, healthy adults): 388 min
half-life ([1]; 150 mg BID tablets, Day 14, healthy adults): 583 min
half-life ([1]; 250 mg BID tablets, Day 1, elderly with mild renal impairment): 518 min
half-life ([1]; 300 mg BID tablets, Day 14, healthy adults): 526 min
Cmax ([1]; 50 mg, 50 mg BID tablets, Day 1 (n = 9), healthy adults): 578 ng/mL
AUC(0-t) [1, 4]: 3150 ng·h/mL
Tmax [1, 4]: 1.5 h
Cmax ([1]; 50 mg, 50 mg BID tablets, Day 14 (n = 8), healthy adults): 611 ng/mL
AUC(0-t) [1, 5]: 3370 ng·h/mL
Tmax [1, 5]: 1.25 h
Cmax ([1]; 150 mg, 150 mg BID tablets, Day 1 (n = 9), healthy adults): 2150 ng/mL
AUC(0-t) [1, 6]: 8970 ng·h/mL
Tmax [1, 6]: 1.5 h
Cmax ([1]; 150 mg, 150 mg BID tablets, Day 14 (n = 9), healthy adults): 2670 ng/mL
AUC(0-t) [1, 7]: 10300 ng·h/mL
Tmax [1, 7]: 1.5 h
Cmax ([1]; 250 mg, 250 mg BID tablets, Day 1 (n = 15), elderly with mild renal impairment): 10300 ng/mL
AUC(0-t) [1, 8]: 30100 ng·h/mL
Tmax [1, 8]: 1 h
Cmax ([1]; 250 mg, 250 mg BID tablets, Day 17 (n = 14), elderly with mild renal impairment): 12300 ng/mL
AUC(0-t) [1, 9]: 40200 ng·h/mL
Tmax [1, 9]: 1 h
Cmax ([1]; 300 mg, 300 mg BID tablets, Day 1 (n = 9), healthy adults): 8240 ng/mL
AUC(0-t) [1, 10]: 24900 ng·h/mL
Tmax [1, 10]: 1.5 h
Cmax ([1]; 300 mg, 300 mg BID tablets, Day 14 (n = 9), healthy adults): 10400 ng/mL
AUC(0-t) [1, 11]: 32300 ng·h/mL
Tmax [1, 11]: 1 h
AEs reported ([2]; 50 mg BID, healthy subjects): 7 AEs
subjects reporting AEs ([2]; 50 mg BID, healthy subjects (9 treated)): 4 subjects
AEs reported ([2]; 150 mg BID, healthy subjects): 23 AEs
subjects reporting AEs ([2]; 150 mg BID, healthy subjects (9 treated)): 7 subjects
AEs reported ([2]; 250 mg BID, elderly subjects): 44 AEs
subjects reporting AEs ([2]; 250 mg BID, elderly subjects (15 treated)): 14 subjects
tolerability [2, 3]: well tolerated
AEs reported ([2]; 300 mg BID, healthy subjects): 13 AEs
subjects reporting AEs ([2]; 300 mg BID, healthy subjects (9 treated)): 6 subjects
deaths ([2]; all cohorts): No deaths
severity of most treatment-emergent AEs ([2]; all cohorts): mild
vital signs and ECGs ([2]; all cohorts): no clinically significant mean changes from baseline
systolic blood pressure ([2]; elderly subjects with mild renal impairment, 250 mg BID, versus placebo group): small increase from baseline
laboratory safety tests, including renal function tests ([2]; grapiprant versus placebo): no clinically significant findings
systolic blood pressure ([2]; healthy subjects, doses up to 300 mg BID, triplicate BP monitoring): no difference between changes from baseline compared with placebo
tolerability ([2]; multiple-dose administration for 14 days, doses up to 300 mg BID, healthy adult subjects): well tolerated
withdrawal due to AE ([2]; one elderly subject, 250 mg BID): non-drug related AE of ventricular tachycardia
serious AEs considered related to the study medication ([2]; one healthy subject, 150 mg BID): decreased hemoglobin, decreased hematocrit, and gastrointestinal hemorrhage
